Measurements as given in patent US20070128217A1 (priority 2003, published 2007).

Assays:
[1] = system: control sera (pooled serum of ten healthy LUMC hospital workers; commercial negative donor pooled serum from the Dutch bloodbank); type: binding, human; set-up: Binding of Control serum LUMC to linear peptides / Binding of Control serum Blood-bank to linear peptides / Binding of Control serum LUMC to looped peptides / Binding of Control Serum Blood-Bank to Looped peptides / Binding of Control serum LUMC to linear peptides of the protein M of SARS-CoV Urbani / Binding of Control serum Blood-bank to linear peptides of the protein M of SARS-CoV Urbani / Binding of Control serum LUMC to looped peptides of the protein M of SARS-CoV Urbani / Binding of Control Serum Blood-Bank to Looped peptides of the protein M of SARS-CoV Urbani: unit not given here
[2] = system: rabbit serum obtained by immunizing a rabbit with the SARS-CoV strain Frankfurt 1; type: binding; set-up: Binding of a rabbit serum to linear peptides / Binding of a rabbit serum to looped peptides / Rabbit serum linear peptides / Rabbit serum looped peptides / Binding of a rabbit serum to linear peptides of protein N of SARS-CoV Urbani (Rabbit serum linear peptides) / Binding of a rabbit serum to looped/cyclic peptides of protein N of SARS-CoV Urbani (Rabbit serum looped peptides): unit not given here
[3] = system: antibodies in sera from SARS patients (sera 1a, 1b, 2, 6, 37, 62, London, SARS-yellow, SARS-green); type: binding, human; set-up: Binding of serum 6 to linear peptides of protein X1 of SARS-CoV Urbani / Binding of serum 37 to linear peptides of protein X1 of SARS-CoV Urbani / Binding of serum 6 to looped/cyclic peptide (PEPSCAN-ELISA) / Binding of serum 37 to looped/cyclic peptide (PEPSCAN-ELISA) / Binding of serum 37 to looped/cyclic peptides of protein X1 of SARS-CoV Urbani / Binding of serum 6 to linear peptides of protein X2 / Binding of serum 37 to linear peptides of protein X2 / Binding of serum 37 to looped/cyclic peptides of protein X2 of SARS-CoV Urbani / Binding of serum 6 to linear peptides of protein M of SARS-CoV Urbani / Binding of serum 37 to linear peptides of protein M of SARS-CoV Urbani / Binding of serum 6 to looped/cyclic peptides of protein M of SARS-CoV Urbani / Binding of serum 37 to looped/cyclic peptides of protein M of SARS-CoV Urbani / Binding of serum 6 to linear peptides of protein X3 of SARS-CoV Urbani / Binding of serum 37 to linear peptides of protein X3 of SARS-CoV Urbani / Binding of serum 37 to looped/cyclic peptides of protein X3 of SARS-CoV Urbani / Binding of serum 6 to linear peptides of protein X4 of SARS-CoV Urbani / Binding of serum 37 to linear peptides of protein X4 of SARS-CoV Urbani / Binding of serum 37 to looped/cyclic peptides of protein X4 of SARS-CoV Urbani / Binding of serum 6 to linear peptides of protein X5 of SARS-CoV Urbani / Binding of serum 37 to linear peptides of protein X5 of SARS-CoV Urbani / Binding of serum 37 to looped/cyclic peptides of protein X5 of SARS-CoV Urbani / Binding of serum 6 to linear peptides of protein N of SARS-CoV Urbani / Binding of serum 37 to linear peptides of protein N of SARS-CoV Urbani / Binding of serum 6 to linear peptide (PEPSCAN-ELISA) / Binding of serum 1a to looped/cyclic peptides of protein N of SARS-CoV Urbani / Binding of serum 1b to looped/cyclic peptides of protein N of SARS-CoV Urbani / Binding of serum 2 to looped/cyclic peptides of protein N of SARS-CoV Urbani / Binding of serum 6 to looped/cyclic peptides of protein N of SARS-CoV Urbani / Binding of serum 37 to looped/cyclic peptides of protein N of SARS-CoV Urbani / Binding of serum 62 to looped/cyclic peptides of protein N of SARS-CoV Urbani / Binding of serum London to looped/cyclic peptides of protein N of SARS-CoV Urbani / Binding of serum SARS-green to looped/cyclic peptides of protein N of SARS-CoV Urbani: unit not given here
[4] = system: recombinant human anti-SARS-CoV antibody 03-018; type: binding; set-up: Binding of antibody 03-018 to linear peptides of the N protein of SARS-CoV Urbani / Binding of antibody 03-018 to looped/cyclic peptides of the N protein of SARS-CoV Urbani: unit not given here

Row | Sequence | Binding of serum 1a to linear peptides of protein N of SARS-CoV Urbani [3] | Binding of serum 1a to looped/cyclic peptides of protein N of SARS-CoV Urbani [3] | Binding of serum 1b to linear peptides of protein N of SARS-CoV Urbani [3] | Binding of serum 1b to looped/cyclic peptides of protein N of SARS-CoV Urbani [3] | Binding of serum 2 to linear peptides of protein N of SARS-CoV Urbani [3] | Binding of serum 2 to looped/cyclic peptides of protein N of SARS-CoV Urbani [3] | Binding of serum 6 to linear peptides of protein N of SARS-CoV Urbani [3] | Binding of serum 6 to looped/cyclic peptides of protein N of SARS-CoV Urbani [3] | Binding of serum 37 to linear peptides of protein N of SARS-CoV Urbani [3] | Binding of serum 37 to looped/cyclic peptides of protein N of SARS-CoV Urbani [3] | Binding of serum 62 to linear peptides of protein N of SARS-CoV Urbani [3] | Binding of serum 62 to looped/cyclic peptides of protein N of SARS-CoV Urbani [3] | Binding of serum London to linear peptides of protein N of SARS-CoV Urbani [3] | Binding of serum London to looped/cyclic peptides of protein N of SARS-CoV Urbani [3] | Binding of serum SARS-green to linear peptides of protein N of SARS-CoV Urbani [3] | Binding of serum SARS-green to looped/cyclic peptides of protein N of SARS-CoV Urbani [3] | Binding of serum SARS-yellow to linear peptides of protein N of SARS-CoV Urbani [3] | Binding of serum SARS-yellow to looped/cyclic peptides of protein N of SARS-CoV Urbani [3] | Binding of antibody 03-018 to linear peptides of the N protein of SARS-CoV Urbani [4] | Binding of antibody 03-018 to looped/cyclic peptides of the N protein of SARS-CoV Urbani [4] | further results
1 | LTQHGKEELRFPRGQ | 0.2 | 0.4 | 0.1 | 0.2 | 0.3 | 0.4 | 0.2 | 0.3 | 0.6 | 0.6 | 0.7 | 0.4 | 0.4 | 0.4 | 0.3 | 0.3 | 0.6 | 0.4 | 0.1 | 0.2 | Binding of Control Serum Blood-Bank to Looped peptides [1]: 0.6; Binding of Control serum Blood-bank to linear peptides [1]: 0.8; Binding of Control serum LUMC to linear peptides [1]: 0.6; Binding of Control serum LUMC to looped peptides [1]: 0.6; Binding of a rabbit serum to linear peptides of protein N of SARS-CoV Urbani (Rabbit serum linear peptides) [2]: 0.1; Binding of a rabbit serum to looped/cyclic peptides of protein N of SARS-CoV Urbani (Rabbit serum looped peptides) [2]: 0.4
2 | SGPDDQIGYYRRATR | 0.2 | 0.4 | 0.1 | 0.3 | 0.2 | 0.5 | 0.2 | 0.4 | 0.6 | 0.8 | 0.6 | 0.7 | 0.4 | 0.5 | 0.4 | 0.5 | 0.6 | 0.7 | 0.1 | 0.3 | Binding of Control Serum Blood-Bank to Looped peptides [1]: 0.8; Binding of Control serum Blood-bank to linear peptides [1]: 0.8; Binding of Control serum LUMC to linear peptides [1]: 0.7; Binding of Control serum LUMC to looped peptides [1]: 0.9; Recognition of the peptide by the rabbit serum [2]: recognized
3 | WLTYHGAIKLDDKDP | 0.3 | 0.2 | 0.2 | 0.1 | 0.2 | 0.2 | 0.2 | 0.1 | 0.7 | 0.4 | 0.8 | 0.3 | 0.6 | 0.3 | 0.3 | 0.0 | 0.7 | 0.2 | 0.1 | 0.2 | Control Serum Blood-Bank Looped peptides [1]: 0.4; Control serum Blood-bank linear peptides [1]: 0.8; Control serum LUMC linear peptides [1]: 0.7; Control serum LUMC looped peptides [1]: 0.4; Binding of a rabbit serum to linear peptides of protein N of SARS-CoV Urbani (Rabbit serum linear peptides) [2]: 0.2; Binding of a rabbit serum to looped/cyclic peptides of protein N of SARS-CoV Urbani (Rabbit serum looped peptides) [2]: 0.2
4 | GANKEGIVWVATEGA | 0.2 | 0.2 | 0.1 | 0.1 | 0.2 | 0.2 | 0.1 | 0.1 | 0.7 | 0.5 | 0.6 | 0.3 | 0.4 | 0.3 | 0.2 | 0.2 | 0.6 | 0.4 | 0.1 | 0.2 | Binding of Control Serum Blood-Bank to Looped peptides [1]: 0.4; Binding of Control serum Blood-bank to linear peptides [1]: 0.5; Binding of Control serum LUMC to linear peptides [1]: 0.5; Binding of Control serum LUMC to looped peptides [1]: 0.5; Binding of a rabbit serum to linear peptides of protein N of SARS-CoV Urbani (Rabbit serum linear peptides) [2]: 0.2; Binding of a rabbit serum to looped/cyclic peptides of protein N of SARS-CoV Urbani (Rabbit serum looped peptides) [2]: 0.5
